Test results: patent US9624229B2, “Pyrimidine-2-amine compounds and their use as inhibitors of JAK kinases” (Rigel Pharmaceuticals, Inc., priority 2008, dated 2017)
Where two headings read alike, the source gives them in different places.

Target: Ba/F3 V617F cells (Homo sapiens, UniProt O60674, V617F, cells depend on it)
Assay: Proliferation assay (Cell Titer-Glo, 72 h) utilizing Ba/F3 V617F cells
Format: cell-based, mouse
Method in brief: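 Ba/F3 V617F cells in RPMI/10% FBS, 1×10^5 cells/mL, exposed in duplicate to 3-fold serial compound dilutions (top 5 mM DMSO stock, diluted 1:250, added as 2× solution in 5% FBS medium) for 72 h at 37 °C. Viability by Cell Titer-Glo luminescence; IC50 reported.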

[1] = Ba/F3 V617F cells, proliferation, level of activity to inhibit JAK2, read-out: IC50 (the source's name)

Ba/F3 V617F cells, sequence (O60674 whole entry V617F): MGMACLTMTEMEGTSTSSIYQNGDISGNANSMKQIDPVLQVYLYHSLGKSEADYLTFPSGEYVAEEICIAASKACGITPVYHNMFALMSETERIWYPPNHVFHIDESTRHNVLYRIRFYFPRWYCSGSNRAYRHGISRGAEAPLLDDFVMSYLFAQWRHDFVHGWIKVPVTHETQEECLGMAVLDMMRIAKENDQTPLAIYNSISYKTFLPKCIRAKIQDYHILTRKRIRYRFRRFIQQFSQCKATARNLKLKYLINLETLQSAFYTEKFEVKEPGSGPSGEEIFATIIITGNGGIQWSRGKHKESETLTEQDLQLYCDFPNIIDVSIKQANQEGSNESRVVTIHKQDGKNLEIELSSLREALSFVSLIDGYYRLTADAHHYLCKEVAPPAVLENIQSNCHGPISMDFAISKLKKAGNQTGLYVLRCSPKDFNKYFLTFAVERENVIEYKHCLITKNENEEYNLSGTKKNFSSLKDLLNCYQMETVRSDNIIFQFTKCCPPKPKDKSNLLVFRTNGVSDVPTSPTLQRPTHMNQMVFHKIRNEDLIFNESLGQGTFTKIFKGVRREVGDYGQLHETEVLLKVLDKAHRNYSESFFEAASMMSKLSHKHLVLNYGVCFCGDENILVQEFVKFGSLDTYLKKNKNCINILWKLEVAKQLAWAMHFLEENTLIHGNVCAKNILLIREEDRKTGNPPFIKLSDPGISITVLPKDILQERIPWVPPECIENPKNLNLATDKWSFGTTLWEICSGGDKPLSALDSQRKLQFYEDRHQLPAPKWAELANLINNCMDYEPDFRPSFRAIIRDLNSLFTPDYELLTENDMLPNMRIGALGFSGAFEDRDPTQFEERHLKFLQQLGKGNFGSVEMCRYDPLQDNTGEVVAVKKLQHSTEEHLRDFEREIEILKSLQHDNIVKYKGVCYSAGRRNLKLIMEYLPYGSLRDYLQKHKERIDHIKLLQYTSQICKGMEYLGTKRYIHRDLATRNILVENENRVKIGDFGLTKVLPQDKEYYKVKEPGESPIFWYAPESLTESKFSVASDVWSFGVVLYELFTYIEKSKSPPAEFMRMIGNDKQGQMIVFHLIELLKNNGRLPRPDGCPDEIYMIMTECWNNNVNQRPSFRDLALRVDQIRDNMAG

Cc1cc(Nc2nccc(-c3ccc(C#N)nc3)n2)ccc1N1C[C@@H]2C[C@H]1CN2C [compound 111, 4-(6-cyanopyridin-3-yl)-N-(3-methyl-4-((1S,4S)-5-methyl-2,5-diazabicyclo[2.2.1]heptan-2-yl)phenyl)pyrimidin-2-amine] gave a GI50 [1] of 1000 to 10000 nM.
Cc1cc(Nc2nccc(-c3ccc(C#N)nc3)n2)ccc1N1C2CCC1CC2 [compound 112, 4-(6-cyanopyridin-3-yl)-N-(3-methyl-4-(7-azabicyclo[2.2.1]heptan-7-yl)phenyl)pyrimidin-2-amine] showed a GI50 [1] of 1000 to 10000 nM.
For Cc1cc(Nc2nccc(-c3ccc4c(c3)CC(=O)N4)n2)ccc1N1C[C@@H]2C[C@H]1CN2C [compound 113, 4-(2-oxoindolin-5-yl)-N-(3-methyl-4((1S,4S)-5-methyl-2,5-diazabicyclo[2.2.1]heptan-2-yl)phenyl)pyrimidin-2-amine], the GI50 [1] was < 1000 nM.
In the case of Cc1cc(Nc2nccc(-c3cncc(C#N)c3)n2)ccc1N1C[C@@H]2C[C@H]1CN2C [compound 114, 4-(5-cyanopyridin-3-yl)-N-(3-methyl-4((1S,4S)-5-methyl-2,5-diazabicyclo[2.2.1]heptan-2-yl)phenyl)pyrimidin-2-amine], the GI50 [1] is reported as 1000 to 10000 nM.
Compound Cc1cc(Nc2nccc(-c3ccc(-c4nnn[nH]4)nc3)n2)ccc1N1C[C@@H]2C[C@H]1CN2C [compound 115, 4-(6-(1H-tetrazol-5-yl)pyridin-3-yl)-N-(3-methyl-4((1S,4S)-5-methyl-2,5-diazabicyclo[2.2.1]heptan-2-yl)phenyl)pyrimidin-2-amine] has a GI50 [1] of 10000 to 20000 nM.
In the case of CC(=O)N1C[C@@H]2C[C@H]1CN2c1ccc(Nc2nccc(-c3ccc(N4CCOCC4)nc3)n2)cc1C#N [compound 116, 4-(6-(morpholin-4-yl)pyridin-3-yl)-N-(3-cyano-4-((1S,4S)-5-acetyl-2,5-diazabicyclo[2.2.1]heptan-2-yl)phenyl)pyrimidin-2-amine], the GI50 [1] is reported as < 1000 nM.
With CS(=O)(=O)N1C[C@@H]2C[C@H]1CN2c1ccc(Nc2nccc(-c3ccc(N4CCOCC4)nc3)n2)cc1C#N [compound 117, 4-(6-(morpholin-4-yl)pyridin-3-yl)-N-(3-cyano-4-((1S,4S)-5-methylsulfonyl-2,5-diazabicyclo[2.2.1]heptan-2-yl)phenyl)pyrimidin-2-amine] the GI50 [1] was < 1000 nM.
With CN1C[C@@H]2C[C@H]1CN2c1ccc(Nc2nccc(-c3ccc(N4CCOCC4)nc3)n2)cc1C#N [compound 118, 4-(6-(morpholin-4-yl)pyridin-3-yl)-N-(3-cyano-4-((1S,4S)-5-methyl-2,5-diazabicyclo[2.2.1]heptan-2-yl)phenyl)pyrimidin-2-amine] the GI50 [1] was < 1000 nM.
N#Cc1cc(Nc2nccc(-c3ccc(N4CCOCC4)nc3)n2)ccc1N1C[C@@H]2C[C@H]1CN2C1CCCC1 [compound 119, 4-(6-(morpholin-4-yl)pyridin-3-yl)-N-(3-cyano-4-((1S,4S)-5-cyclopentyl-2,5-diazabicyclo[2.2.1]heptan-2-yl)phenyl)pyrimidin-2-amine] was tested, and the GI50 [1] was < 1000 nM.
In the case of Cc1cc(Nc2nccc(-c3ccc(N4CCOCC4)nc3)n2)ccc1N1CCN2CCC1C2 (stereo not shown) [compound 120, 4-(6-(morpholin-4-yl)pyridin-3-yl)-N-(3-methyl-4-(1,4-diazabicyclo[3.2.1]octan-4-yl)phenyl)pyrimidin-2-amine], the GI50 [1] is reported as < 1000 nM.
Cc1cc(Nc2nccc(-c3ccc4c(c3)CC(=O)N4)n2)ccc1N1CCN2CCC1C2 (stereo not shown) [compound 121, 4-(2-oxoindolin-5-yl)-N-(3-methyl-4-(1,4-diazabicyclo[3.2.1]octan-4-yl)phenyl)pyrimidin-2-amine] was tested, and the GI50 [1] was < 1000 nM.
With Cc1cc(Nc2nccc(-c3ccc4ncn(C)c4c3)n2)ccc1N1CCN2CCC1C2 (stereo not shown) [compound 122, (1-methylbenzimidazol-6-yl)-N-(3-methyl-4-(1,4-diazabicyclo[3.2.1]octan-4-yl)phenyl)pyrimidin-2-amine] the GI50 [1] was < 1000 nM.
In the case of Cc1cc(Nc2nccc(-c3ccc4nccn4c3)n2)ccc1N1CCN2CCC1C2 (stereo not shown) [compound 123, 4-(imidazo[1,2-a]pyridin-6-yl)-N-(3-methyl-4-(1,4-diazabicyclo[3.2.1]octan-4-yl)phenyl)pyrimidin-2-amine], the GI50 [1] is reported as < 1000 nM.
For CN1C[C@@H]2C[C@H]1CN2c1ccc(Nc2nccc(-c3ccc4c(c3)NC(=O)CO4)n2)cc1F [compound 124, 4-(2H-benzo[b][1,4]oxazin-3(4H)-on-6-yl)-N-(3-fluoro-4-((1S,4S)-5-methyl-2,5-diazabicyclo[2.2.1]heptan-2-yl)phenyl)pyrimidin-2-amine], the GI50 [1] was < 1000 nM.
For Cc1cc(Nc2nccc(-c3cnc4c(c3)OC(C)(C)C(=O)N4C)n2)ccc1N1C[C@@H]2C[C@H]1CN2C [compound 125, 4-(2,2,4-trimethyl-3-oxo-3,4-dihydro-2H-pyrido[3,2-b][1,4]oxazin-7-yl)-N-(3-methyl-4-((1S,4S)-5-methyl-2,5-diazabicyclo[2.2.1]heptan-2-yl)phenyl)pyrimidin-2-amine], the GI50 [1] was < 1000 nM.
For CN1C(=O)C(C)(C)Oc2cc(-c3ccnc(Nc4ccc(N5C[C@@H]6C[C@H]5CN6C)c(F)c4)n3)cnc21 [compound 126, 4-(2,2,4-trimethyl-3-oxo-3,4-dihydro-2H-pyrido[3,2-b][1,4]oxazin-7-yl)-N-(3-fluoro-4-((1S,4S)-5-methyl-2,5-diazabicyclo[2.2.1]heptan-2-yl)phenyl)pyrimidin-2-amine], the GI50 [1] was < 1000 nM.
CC1CCCN(c2cnc(-c3ccnc(Nc4ccc(N5C[C@@H]6C[C@H]5CN6C)c(F)c4)n3)cn2)C1 (stereo partly drawn) [compound 127, 4-(5-(3-methylpiperidin-1-yl)pyrazin-2-yl)-N-(3-fluoro-4-((1S,4S)-5-methyl-2,5-diazabicyclo[2.2.1]heptan-2-yl)phenyl)pyrimidin-2-amine] gave a GI50 [1] of 1000 to 10000 nM.
With CN1C[C@@H]2C[C@H]1CN2c1ccc(Nc2nccc(-c3ccc(NC(=O)C(C)(C)C)cc3)n2)cc1F [compound 128, 4-(4-(t-butylcarbonylamino)phenyl)-N-(3-fluoro-4-((1S,4S)-5-methyl-2,5-diazabicyclo[2.2.1]heptan-2-yl)phenyl)pyrimidin-2-amine] the GI50 [1] was < 1000 nM.
Cc1cc(Nc2nccc(-c3ccc(NC(=O)C(C)(C)C)cc3)n2)ccc1N1C[C@@H]2C[C@H]1CN2C [compound 129, 4-(4-(t-butylcarbonylamino)phenyl)-N-(3-methyl-4-((1S,4S)-5-methyl-2,5-diazabicyclo[2.2.1]heptan-2-yl)phenyl)pyrimidin-2-amine] was tested, and the GI50 [1] was < 1000 nM.
Cc1cc(Nc2nccc(-c3cnc4c(c3)OC(C)(C)C(=O)N4)n2)ccc1N1C[C@@H]2C[C@H]1CN2C [compound 130, 4-(2,2-dimethyl-3-oxo-3,4-dihydro-2H-pyrido[3,2-b][1,4]oxazin-7-yl)-N-(3-methyl-4-((1S,4S)-5-methyl-2,5-diazabicyclo[2.2.1]heptan-2-yl)phenyl)pyrimidin-2-amine] was tested, and the GI50 [1] was < 1000 nM.
In the case of Cc1cc(Nc2nccc(-c3ccc(NC(=O)C(C)(C)C)cc3)n2)cnc1N1C[C@@H]2C[C@H]1CN2C [compound 131, 4-(4-(t-butylcarbonylamino)phenyl)-N-(5-methyl-6-((1S,4S)-5-methyl-2,5-diazabicyclo[2.2.1]heptan-2-yl)pyridin-3-yl)pyrimidin-2-amine], the GI50 (inhibition of JAK2 activity, proliferation of Ba/F3 V617F cells, read-out: IC50 (the source's name)) is reported as < 1000 nM.
In the case of CC(=O)Nc1ccc(-c2ccnc(Nc3ccc(N4C[C@@H]5C[C@H]4CN5C)c(C)c3)n2)cn1 [compound 132, 4-(6-(acetamido)pyridin-3-yl)-N-(3-methyl-4-((1S,4S)-5-methyl-2,5-diazabicyclo[2.2.1]heptan-2-yl)phenyl)pyrimidin-2-amine], the GI50 [1] is reported as < 1000 nM.
